Results published in patent US9724351B2, “Compounds for the treatment of paramoxyvirus viral infections” (priority 2012, dated 2017).

How the values were obtained:
[1] = Cytotoxicity Determination; type: cell-based; conditions: human, HEp-2 cells, without addition of virus, CCK-8 readout, bins (Table 4: greater than 100 μM; Table 5: equal to or less than 100 μM and greater than 10 μM), read-out: 50% cytotoxicity concentration (CC50)
Outline: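 CC50 was derived from CCK-8 optical density after a 3-4 h reagent incubation. Before that, cells without virus had been treated for 5 days at 37 °C, 5% CO2 with compound at seven ½-step final concentrations from 100 μM, in duplicate wells.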

[2] = test system: Respiratory Syncytial Virus (RSV) long strain (ATCC#VR-26); test: RSV Antiviral Assay (CPE reduction assay); type: cell-based; conditions: human respiratory syncytial virus, 120 h; HEp-2 cells infected with RSV long strain, 5 days, CCK-8 readout; bins (Table 2: less than 1 μM; Table 3: equal to or higher than 1 μM and less than 50 μM); read-out: 50% effective concentration (EC50)
Outline: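 Cytopathic-effect protection measured after 5 days at 37 °C, 5% CO2 via CCK-8 dehydrogenase readout at 450 nm (630 nm reference), EC50 regressed from mean O.D. Host HEp-2 cells received RSV long strain at 100 TCID50/well; compound 9-point ⅓ series starting 100 μM or 1 μM, 1% DMSO, duplicate wells.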

Row | SMILES | CC50 at 5 days [1] [µM] | EC50 [2] [µM]
1 | COc1ccc(C(=O)CNC(=O)c2ccnc(C)c2)nc1-c1ccc(F)c(Cl)c1 [Compound 4204] | > 100 | 1 to 50
2 | COc1ccc(C(=O)CNC(=O)c2ccncn2)nc1-c1ccc(F)c(Cl)c1 [Compound 4205] | > 100 | 1 to 50
